Assay results as given in patent publication US11759462B2, “Spirocyclic compounds as tryptophan hydroxylase inhibitors” (priority 2013, dated 2023).
Where two headings read alike, the source gives them in different places.

Target: T1, Recombinant human TPH1 (MBP tagged) (Homo sapiens, UniProt P17752)
T1 construct: cloning full length human TPH1 cDNA in to a bacterial pMAL-c5E expression vector; made in house; host or cells: E. coli BL21 (DE3)
T1 sequence (P17752 1-444): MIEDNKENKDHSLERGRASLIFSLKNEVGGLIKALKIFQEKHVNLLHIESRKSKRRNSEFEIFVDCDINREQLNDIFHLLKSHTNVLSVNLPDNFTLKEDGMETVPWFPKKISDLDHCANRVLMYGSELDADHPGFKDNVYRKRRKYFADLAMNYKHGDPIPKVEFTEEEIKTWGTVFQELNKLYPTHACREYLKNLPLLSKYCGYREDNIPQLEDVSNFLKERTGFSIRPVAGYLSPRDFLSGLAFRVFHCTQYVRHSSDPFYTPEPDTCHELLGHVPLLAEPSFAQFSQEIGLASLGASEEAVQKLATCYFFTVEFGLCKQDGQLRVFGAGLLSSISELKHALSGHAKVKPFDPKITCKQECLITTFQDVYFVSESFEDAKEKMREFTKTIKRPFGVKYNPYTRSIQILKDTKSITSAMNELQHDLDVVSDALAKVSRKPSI
Assay: TPH1 in vitro inhibition assay (kinetic fluorescence)
Format: biochemical
Source text: Recombinant human TPH1 (rTPH1 GenBank™ accession no. NP_004179) was expressed by cloning full length human TPH1 cDNA in to a bacterial pMAL-c5E expression vector to produce maltose-binding protein (MBP) TPH1 fusion proteins. E. coli BL21 (DE3) containing pMAL-c5E-TPH1 was used for protein generation and the recombinant protein was purified utilizing standard column chromatography techniques. The MBP tagged TPH1 (MBP-TPH1) was used directly to screen compounds as described below. Recombinant human TPH2 (rTPH2 GenBank™ accession no. 173353), PheOH (rPheOH GenBank™ accession no. K03020) and TH (rTH GenBank™ accession no. L20679) with an MBP tag were produced similarly.
TPH1 activities were measured in an assay containing 200 mM ammonium sulfate, 7 mM DTT, 50 μg/mL catalase, 25 μM ammonium iron sulfate, 50 mM MES, pH 7.1. Test compounds were diluted in 100% DMSO and added to the assay plate in 1 μL aliquots at 100× final concentration. Fifty microliters of assay buffer containing 30 nM TPH1 enzyme (MBP tagged) were added to the plate wells containing the test compound by the use of an Eppendorf repeater pipette. The reaction was initiated by the addition of 50 μL of assay buffer containing 60 μM tryptophan and 72 μM 6-6-methyltetra-hydropterin (2× final concentration) by the use of a Multidrop (LabSystems). Final reaction conditions were 15 nM TPH1 enzyme, 30 μM tryptophan, 36 μM 6-methyltetra-hydropterin, 200 mM ammonium sulfate, 7 mM DTT, […], 25 μM ferrous ammonium sulfate, 50 mM MES, pH 7.1, with atmospheric oxygen at room temperature. The plate was immediately placed onto an M5 plate reader (Molecular Devices) for kinetic fluorescence measurement using an excitation setting of 300 nm and an emission setting of 335 nm. Fluorescence reads are recorded in kinetic mode for 300 seconds (5 minutes).
Kinetic assay data for compounds at specific concentrations was translated into slopes using the Softmax Pro software on a Spectramax reader, and compound inhibition slopes were compared with wells containing enzyme, substrate and cofactor in the absence of inhibitor (100%), and wells containing substrate and cofactor in the absence of enzyme (0%). DMSO concentration in the assay was 1%. […] IC50's were determined using Graphpad Prism.

[1] = read-out: TPH1 Range (TPH1 inhibition IC50)
[2] = TPH1 Range (TPH1 inhibition IC50)

IC50 [1] | Compound | IC50 [2]
50 to 300 nM | Nc1nc(O[C@H](c2ccc(-c3ccncc3)cc2)C(F)(F)F)cc(N2CCC3(CC2)CN[C@H](C(=O)O)C3)n1 [Example 55ax, (S)-8-(2-amino-6-((R)-2,2,2-trifluoro-1-(4-(pyridin-4-yl)phenyl)ethoxy)pyrimidin-4-yl)-2,8-diazaspiro[4.5]decane-3-carboxylic acid] | –
50 to 300 nM | COc1cc(C)cc(-c2ccc([C@@H](Oc3cc(N4CCC5(CC4)CN[C@H](C(=O)O)C5)nc(N)n3)C(F)(F)F)cc2)c1 [Example 55o, (S)-8-(2-amino-6-((R)-2,2,2-trifluoro-1-(3′-methoxy-5′-methyl-[1,1′-biphenyl]-4-yl)ethoxy)pyrimidin-4-yl)-2,8-diazaspiro[4.5]decane-3-carboxylic acid] | –
300 to 3000 nM | Nc1nc(O[C@H](c2ccc(-c3ccccc3C(F)(F)F)cc2)C(F)(F)F)cc(N2CCC3(CC2)CN[C@H](C(=O)O)C3)n1 [Example 55ce, (S)-8-(2-amino-6-((R)-2,2,2-trifluoro-1-(2′-(trifluoromethyl)-[1,1′-biphenyl]-4-yl)ethoxy)pyrimidin-4-yl)-2,8-diazaspiro[4.5]decane-3-carboxylic acid] | –
50 to 300 nM | Nc1nc(O[C@H](c2ccc(-c3ccc4[nH]c(=O)oc4c3)cc2)C(F)(F)F)cc(N2CCC3(CC2)CN[C@H](C(=O)O)C3)n1 [Example 55ab, (S)-8-(2-amino-6-((R)-2,2,2-trifluoro-1-(4-(2-oxo-2,3-dihydrobenzo[d]oxazol-6-yl)phenyl)ethoxy)pyrimidin-4-yl)-2,8-diazaspiro[4.5]decane-3-carboxylic acid] | –
50 to 300 nM | Nc1nc(O[C@H](c2ccc(-c3coc4ccccc34)cc2)C(F)(F)F)cc(N2CCC3(CC2)CN[C@H](C(=O)O)C3)n1 [Example 55cz, (S)-8-(2-amino-6-((R)-1-(4-(benzofuran-3-yl)phenyl)-2,2,2-trifluoroethoxy)pyrimidin-4-yl)-2,8-diazaspiro[4.5]decane-3-carboxylic acid] | –
50 to 300 nM | Nc1nc(O[C@H](c2ccc(-c3ccc4[nH]c(=O)ccc4c3)cc2)C(F)(F)F)cc(N2CCC3(CC2)CN[C@H](C(=O)O)C3)n1 [Example 55t, (S)-8-(2-amino-6-((R)-2,2,2-trifluoro-1-(4-(2-oxo-1,2-dihydroquinolin-6-yl)phenyl)ethoxy)pyrimidin-4-yl)-2,8-diazaspiro[4.5]decane-3-carboxylic acid] | –

Continued, compound first:

Compound | IC50 [1] | IC50 [2]
Nc1nc(O[C@H](c2ccc(Cl)cc2-c2ccc(F)c(F)c2)C(F)(F)F)cc(N2CCC3(CC2)CN[C@H](C(=O)O)C3)n1 [Example 34aw, (S)-8-(2-amino-6-((R)-1-(5-chloro-3′,4′-difluoro-[1,1′-biphenyl]-2-yl)-2,2,2-trifluoroethoxy)pyrimidin-4-yl)-2,8-diazaspiro[4.5]decane-3-carboxylic acid] | – | < 50 nM
(S)-8-(2-amino-6-((R)-1-(4-bromo-2-(3-methyl-H-pyrazol-1-yl)phenyl)-2,2,2-trifluoroethoxy)pyrimidin-4-yl)-2,8-diazaspiro[4.5]decane-3-carboxylic acid [Example 10o] | < 50 nM | –
CCCc1ccc(-c2cccc(S(C)(=O)=O)c2)c([C@@H](Oc2cc(N3CCC4(CC3)CN[C@H](C(=O)O)C4)nc(N)n2)C(F)(F)F)c1 [Example 49, (S)-8-(2-Amino-6-((R)-2,2,2-trifluoro-1-(3′-(methylsulfonyl)-4-propyl-[1,1′-biphenyl]-2-yl)ethoxy)pyrimidin-4-yl)-2,8-diazaspiro[4.5]decane-3-carboxylic acid] | < 50 nM | –
CC/C=C/c1ccc(-n2ccc(C)n2)c([C@@H](Oc2cc(N3CCC4(CC3)CN[C@H](C(=O)O)C4)nc(N)n2)C(F)(F)F)c1 [Example 19c, (S)-8-(2-amino-6-((R)-1-(5-((E)-but-1-en-1-yl)-2-(3-methyl-1H-pyrazol-1-yl)phenyl)-2,2,2-trifluoroethoxy)pyrimidin-4-yl)-2,8-diazaspiro[4.5]decane-3-carboxylic acid] | < 50 nM | –
Cc1ccc(-c2ccc([C@@H](Oc3cc(N4CCC5(CC4)CN[C@H](C(=O)O)C5)nc(N)n3)C(F)(F)F)c(-n3ccc(C)n3)c2)cc1 [Example 1ae, (S)-8-(2-amino-6-((R)-2,2,2-trifluoro-1-(4′-methyl-3-(3-methyl-1H-pyrazol-1-yl)-[1,1′-biphenyl]-4-yl)ethoxy)pyrimidin-4-yl)-2,8-diazaspiro[4.5]decane-3-carboxylic acid] | < 50 nM | –
(S)-8-(2-Amino-6-((4-(3-methyl-H-indazol-6-yl)phenoxy)methyl)pyrimidin-4-yl)-2,8-diazaspiro[4.5]decane-3-carboxylic acid [Example 61] | 50 to 300 nM | –
Cc1ccn(-c2cc(-c3ccc(Cl)c(Cl)c3)ccc2[C@@H](Oc2cc(N3CCC4(CC3)CN[C@H](C(=O)O)C4)nc(N)n2)C(F)(F)F)n1 [Example 1af, (S)-8-(2-amino-6-((R)-1-(3′,4′-dichloro-3-(3-methyl-1H-pyrazol-1-yl)-[1,1′-biphenyl]-4-yl)-2,2,2-trifluoroethoxy)pyrimidin-4-yl)-2,8-diazaspiro[4.5]decane-3-carboxylic acid] | – | < 50 nM
Nc1nc(O[C@H](c2ccc(Cl)cc2-c2ncccn2)C(F)(F)F)cc(N2CCC3(CC2)CN[C@H](C(=O)O)C3)n1 [Example 34ct, (S)-8-(2-amino-6-((R)-1-(4-chloro-2-(pyrimidin-2-yl)phenyl)-2,2,2-trifluoroethoxy)pyrimidin-4-yl)-2,8-diazaspiro[4.5]decane-3-carboxylic acid] | < 50 nM | –
Cc1ccn(-c2cc(-c3ccc(F)c(Cl)c3)ccc2[C@@H](Oc2cc(N3CCC4(CC3)CN[C@H](C(=O)O)C4)nc(N)n2)C(F)(F)F)n1 [Example 1ar, (S)-8-(2-amino-6-((R)-1-(3′-chloro-4′-fluoro-3-(3-methyl-1H-pyrazol-1-yl)-[1,1′-biphenyl]-4-yl)-2,2,2-trifluoroethoxy)pyrimidin-4-yl)-2,8-diazaspiro[4.5]decane-3-carboxylic acid] | 50 to 300 nM | –
Nc1nc(O[C@H](c2ccc(Cl)cc2-c2cccc(C(=O)NCCN3CCCC3)c2)C(F)(F)F)cc(N2CCC3(CC2)CN[C@H](C(=O)O)C3)n1 [Example 34cf, (S)-8-(2-amino-6-((R)-1-(5-chloro-3′-((2-(pyrrolidin-1-yl)ethyl)carbamoyl)-[1,1′-biphenyl]-2-yl)-2,2,2-trifluoroethoxy)pyrimidin-4-yl)-2,8-diazaspiro[4.5]decane-3-carboxylic acid] | 300 to 3000 nM | –
Cc1ccn(-c2cc(-c3ccc(F)c(F)c3)ccc2[C@@H](Oc2cc(N3CCC4(CC3)CN[C@H](C(=O)O)C4)nc(C)n2)C(F)(F)F)n1 [Example 29c, (S)-8-(6-((R)-1-(3′,4′-difluoro-3-(3-methyl-1H-pyrazol-1-yl)-[1,1′-biphenyl]-4-yl)-2,2,2-trifluoroethoxy)-2-methylpyrimidin-4-yl)-2,8-diazaspiro[4.5]decane-3-carboxylic acid] | 50 to 300 nM | –
Cc1ccn(-c2ccc(-c3ccc(C)c(CO)c3)cc2[C@@H](Oc2cc(N3CCC4(CC3)CN[C@H](C(=O)O)C4)nc(N)n2)C(F)(F)F)n1 [Example 19m, (S)-8-(2-amino-6-((R)-2,2,2-trifluoro-1-(3′-(hydroxymethyl)-4′-methyl-4-(3-methyl-1H-pyrazol-1-yl)-[1,1′-biphenyl]-3-yl)ethoxy)pyrimidin-4-yl)-2,8-diazaspiro[4.5]decane-3-carboxylic acid] | < 50 nM | –
Cc1ccn(-c2ccc(C(=O)O)cc2[C@@H](Oc2cc(N3CCC4(CC3)CN[C@H](C(=O)O)C4)nc(N)n2)C(F)(F)F)n1 [Example 24, (S)-8-(2-Amino-6-((R)-1-(5-carboxy-2-(3-methyl-H-pyrazol-1-yl)phenyl)-2,2,2-trifluoroethoxy)pyrimidin-4-yl)-2,8-diazaspiro[4.5]decane-3-carboxylic acid] | 50 to 300 nM | –
